Experimental data reported in patent US20250179032A1, “HETEROCYCLIC INHIBITORS OF GLUT9 FOR TREATMENT OF DISEASE” (HORIZON THERAPEUTICS IRELAND DAC, priority 2022, published 2025).

biological target: T1, H. sapiens SLC2A9 variant 2 (GLUT9B) (Homo sapiens, UniProt Q9NRM0); experiment: GLUT9 functional assay: uric acid uptake in HEK293T cells, allantoin formation by MS/MS as proxy of GLUT9B inhibition; type: cell-based; details: 15 minute assay; HEK293T cells stably expressing GLUT9B and transiently A. oryzae uricase; uric acid 0.3 mM, 37° C.; read-out: 15 min IC50
T1 sequence (Q9NRM0 1-511 isoform Q9NRM0-2): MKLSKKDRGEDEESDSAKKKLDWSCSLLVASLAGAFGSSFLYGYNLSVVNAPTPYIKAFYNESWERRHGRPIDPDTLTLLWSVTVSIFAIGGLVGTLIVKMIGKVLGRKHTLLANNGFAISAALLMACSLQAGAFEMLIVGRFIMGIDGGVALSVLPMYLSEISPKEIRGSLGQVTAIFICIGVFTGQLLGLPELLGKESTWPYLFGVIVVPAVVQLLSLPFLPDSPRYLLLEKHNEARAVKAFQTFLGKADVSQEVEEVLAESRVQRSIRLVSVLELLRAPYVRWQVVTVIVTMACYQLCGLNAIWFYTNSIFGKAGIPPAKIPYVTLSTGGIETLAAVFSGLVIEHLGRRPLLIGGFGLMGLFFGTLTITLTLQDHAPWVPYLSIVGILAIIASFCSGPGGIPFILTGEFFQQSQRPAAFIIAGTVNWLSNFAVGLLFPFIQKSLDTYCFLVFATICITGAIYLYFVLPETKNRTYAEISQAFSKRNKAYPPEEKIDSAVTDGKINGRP
Summary of the method: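 Inhibition of GLUT9B-mediated urate uptake read as reduced allantoin formation, measured by MS/MS against allantoin standards in HEK293T matrix with log-logistic fitting. Stable GLUT9B HEK293T cells carrying transfected A. oryzae uricase were incubated 15 or 60 min at 37° C with uric acid at Km (0.3 mM), pH 7.4 gluconate buffer.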

IC50 [nM]	Structure (SMILES)
500 to 2000	COCCOc1ccc(-c2ncc(CCC(F)(F)C(F)(F)F)nc2N2CCC(C(=O)O)CC2)cc1 [Compound 125, 1-(3-(4-(2-methoxyethoxy)phenyl)-6-(3,3,4,4,4-pentafluorobutyl)pyrazin-2-yl)piperidine-4-carboxylic acid]
< 500	COCCOc1ccc(-c2ncc(CCCCC(F)(F)F)nc2N2CCC(C(=O)O)CC2)cc1 [Compound 133, 1-(3-(4-(2-methoxyethoxy)phenyl)-6-(5,5,5-trifluoropentyl)pyrazin-2-yl)piperidine-4-carboxylic acid]
500 to 2000	COCCOc1ccc(-c2ncc(CCC(C)(F)F)nc2N2CCC(C(=O)O)CC2)cc1 [Compound 137, 1-(6-(3,3-difluorobutyl)-3-(4-(2-methoxyethoxy)phenyl)pyrazin-2-yl)piperidine-4-carboxylic acid]
< 500	COCCCCc1cnc(-c2ccc(OCCOC)cc2)c(N2CCC(C(=O)O)CC2)n1 [Compound 141, 1-(6-(4-methoxybutyl)-3-(4-(2-methoxyethoxy)phenyl)pyrazin-2-yl)piperidine-4-carboxylic acid]
< 500	O=C(O)C1CCN(c2nc(CCCC(F)F)cnc2-c2ccc3occc3c2)CC1 [Compound 142, 1-(3-(benzofuran-5-yl)-6-(4,4-difluorobutyl)pyrazin-2-yl)piperidine-4-carboxylic acid]
< 500	O=C(O)C1CCN(c2nc(CCCC(F)F)cnc2-c2ccc3c(c2)CCO3)CC1 [Compound 143, 1-(6-(4,4-difluorobutyl)-3-(2,3-dihydrobenzofuran-5-yl)pyrazin-2-yl)piperidine-4-carboxylic acid]
< 500	O=C(O)C1CCN(c2nc(CCCC(F)F)cnc2-c2ccc3c(c2)OCO3)CC1 [Compound 144, 1-(3-(benzo[d][1,3]dioxol-5-yl)-6-(4,4-difluorobutyl)pyrazin-2-yl)piperidine-4-carboxylic acid]
< 500	COCCOc1ccc(-c2ncc(CCCC(F)F)nc2N2CCC(C(=O)O)CC2)cc1 [Compound 145, 1-(6-(4,4-difluorobutyl)-3-(4-(2-methoxyethoxy)phenyl)pyrazin-2-yl)piperidine-4-carboxylic acid]
> 2000	CCC(F)(F)Cc1cnc(-c2ccc(OCCOC)cc2)c(N2CCC(C(=O)O)CC2)n1 [Compound 148, 1-(6-(2,2-difluorobutyl)-3-(4-(2-methoxyethoxy)phenyl)pyrazin-2-yl)piperidine-4-carboxylic acid]
500 to 2000	CCC(F)(F)Cc1cnc(-c2ccc(OCC3CC3)cc2)c(N2CCC(C(=O)O)CC2)n1 [Compound 150, 1-(3-(4-(cyclopropylmethoxy)phenyl)-6-(2,2-difluorobutyl)pyrazin-2-yl)piperidine-4-carboxylic acid]
< 500	O=C(O)C1CCN(c2nc(CCC(F)(F)F)cnc2-c2ccc(OCC3CC3)cc2)CC1 [Compound 152, 1-(3-(4-(cyclopropylmethoxy)phenyl)-6-(3,3,3-trifluoropropyl)pyrazin-2-yl)piperidine-4-carboxylic acid]
< 500	O=C(O)C1CCN(c2nc(CCCCC(F)(F)F)cnc2-c2ccc(OCC3CC3)cc2)CC1 [Compound 153, 1-(3-(4-(cyclopropylmethoxy)phenyl)-6-(5,5,5-trifluoropentyl)pyrazin-2-yl)piperidine-4-carboxylic acid]

Second part, the molecule before the results:

Structure (SMILES)	IC50 [nM]
O=C(O)C1CCN(c2nc(CCC(F)(F)F)cnc2-c2ccc3occc3c2)CC1 [Compound 121, 1-(3-(benzofuran-5-yl)-6-(3,3,3-trifluoropropyl)pyrazin-2-yl)piperidin-4-carboxylic acid]	< 500
O=C(O)C1CCN(c2nc(CCC(F)(F)F)cnc2-c2ccc3c(c2)OCCO3)CC1 [Compound 122, 1-(3-(2,3-dihyrobenzo[b][1,4]dioxin-6-yl)-6-(3,3,3-trifluoropropyl)pyrazin-2-yl)piperidine-4-carboxylic acid]	500 to 2000
O=C(O)C1CCN(c2nc(CCCC(F)(F)F)cnc2-c2ccc3occc3c2)CC1 [Compound 123, 1-(3-(benzofuran-5-yl)-6-(4,4,4-trifluorobutyl)pyrazin-2-yl)piperidine-4-carboxylic acid]	< 500
O=C(O)C1CCN(c2nc(CCC(F)(F)C(F)(F)F)cnc2-c2ccc3occc3c2)CC1 [Compound 124, 1-(3-(benzofuran-5-yl)-6-(3,3,4,4,4-pentafluorobutyl)pyrazin-2-yl)piperidine-4-carboxylic acid]	< 500
O=C(O)C1CCN(c2nc(CCC(F)(F)C(F)(F)F)cnc2-c2ccc3c(c2)OCO3)CC1 [Compound 126, 1-(3-(benzo[d][1,3]dioxol-5-yl)-6-(3,3,4,4,4-pentafluorobutyl)pyrazin-2-yl)piperidine-4-carboxylic acid]	< 500
O=C(O)C1CCN(c2nc(CC(C(F)(F)F)C(F)(F)F)cnc2-c2ccc3c(c2)OCO3)CC1 [Compound 127, 1-(3-(benzo[d][1,3]dioxol-5-yl)-6-(3,3,3-trifluoro-2-(trifluoromethyl)propyl)pyrazin-2-yl)piperidine-4-carboxylic acid]	500 to 2000
O=C(O)C1CCN(c2nc(CCCC(F)(F)F)cnc2-c2cc(F)c3occc3c2)CC1 [Compound 129, 1-(3-(7-fluorobenzofuran-5-yl)-6-(4,4,4-trifluorobutyl)pyrazin-2-yl)piperidine-4-carboxylic acid]	< 500
O=C(O)C1CCN(c2nc(CCCCC(F)(F)F)cnc2-c2ccc3occc3c2)CC1 [Compound 130, 1-(3-(benzofuran-5-yl)-6-(5,5,5-Trifluoropentyl)Pyrazin-2-yl)Piperidine-4-carboxylic acid]	< 500
O=C(O)C1CCN(c2nc(CCCCC(F)(F)F)cnc2-c2ccc3c(c2)CCO3)CC1 [Compound 131, 1-(3-(2,3-dihydrobenzofuran-5-yl)-6-(5,5,5-trifluoropentyl)pyrazin-2-yl)piperidine-4-carboxylic acid]	< 500
O=C(O)C1CCN(c2nc(CCCCC(F)(F)F)cnc2-c2ccc3c(c2)OCO3)CC1 [Compound 132, 1-(3-(benzo[d][1,3]dioxol-5-yl)-6-(5,5,5-trifluoropentyl)pyrazin-2-yl)piperidine-4-carboxylic acid]	< 500
CC(F)(F)CCc1cnc(-c2ccc3occc3c2)c(N2CCC(C(=O)O)CC2)n1 [Compound 134, 1-(3-(benzofuran-5-yl)-6-(3,3-difluorobutyl)pyrazin-2-yl)piperidine-4-carboxylic acid]	< 500
CC(F)(F)CCc1cnc(-c2ccc3c(c2)CCO3)c(N2CCC(C(=O)O)CC2)n1 [Compound 135, 1-(6-(3,3-difluorobutyl)-3-(2,3-dihydrobenzofuran-5-yl)pyrazin-2-yl)piperidine-4-carboxylic acid]	500 to 2000
CC(F)(F)CCc1cnc(-c2ccc3c(c2)OCO3)c(N2CCC(C(=O)O)CC2)n1 [Compound 136]	< 500
COCCCCc1cnc(-c2ccc3occc3c2)c(N2CCC(C(=O)O)CC2)n1 [Compound 138, 1-(3-(benzofuran-5-yl)-6-(4-methoxybutyl)pyrazin-2-yl)piperidine-4-carboxylic acid]	< 500
COCCCCc1cnc(-c2ccc3c(c2)CCO3)c(N2CCC(C(=O)O)CC2)n1 [Compound 139, 1-(3-(2,3-dihydrobenzofuran-5-yl)-6-(4-methoxybutyl)pyrazin-2-yl)piperidine-4-carboxylic acid]	< 500
COCCCCc1cnc(-c2ccc3c(c2)OCO3)c(N2CCC(C(=O)O)CC2)n1 [Compound 140, 1-(3-(benzo[d][1,3]dioxol-5-yl)-6-(4-methoxybutyl)pyrazin-2-yl)piperidine-4-carboxylic acid]	< 500
O=c1[nH]c(C2CCN(c3nc(CCC(F)(F)F)cnc3-c3cc(F)c4occc4c3)CC2)no1 [Compound 146, 3-(1-(3-(7-fluorobenzofuran-5-yl)-6-(3,3,3-trifluoropropyl)pyrazin-2-yl)piperidin-4-yl)-1,2,4-oxadiazol-5(4H)-one]	< 500
CCCCCc1cnc(-c2cc(F)c3occc3c2)c(N2CCC(C(=O)O)CC2)n1 [Compound 147, 1-(3-(7-fluorobenzofuran-5-yl)-6-pentylpyrazin-2-yl)piperidine-4-carboxylic acid]	< 500
CCC(F)(F)Cc1cnc(-c2ccc3occc3c2)c(N2CCC(C(=O)O)CC2)n1 [Compound 149, 1-(3-(benzofuran-5-yl)-6-(2,2-difluorobutyl)pyrazin-2-yl)piperidine-4-carboxylic acid]	< 500
O=C(O)C1CCN(c2nc(CCCOC(F)(F)F)cnc2-c2ccc3occc3c2)CC1 [Compound 151, 1-(3-(benzofuran-5-yl)-6-(3-(trifluoromethoxy)propyl)pyrazin-2-yl)piperidine-4-carboxylic acid]	< 500
O=C(O)C1CCN(c2nc(CCC(F)(F)C(F)(F)F)cnc2-c2ccc(OCC3CC3)cc2)CC1 [Compound 154, 1-(3-(4-(cyclopropylmethoxy)phenyl)-6-(3,3,4,4,4-pentafluorobutyl)pyrazin-2-yl)piperidine-4-carboxylic acid]	500 to 2000

same assay, conditions: 60 minute assay; HEK293T cells stably expressing GLUT9B and transiently A. oryzae uricase; uric acid 0.3 mM, 37° C.; read-out: 60 min IC50

IC50 [nM]	Structure (SMILES)
< 500	COCCCCc1cnc(-c2ccc3occc3c2)c(N2CCC(C(=O)O)CC2)n1 [Compound 138, 1-(3-(benzofuran-5-yl)-6-(4-methoxybutyl)pyrazin-2-yl)piperidine-4-carboxylic acid]
< 500	O=C(O)C1CCN(c2nc(CCCC(F)F)cnc2-c2ccc3occc3c2)CC1 [Compound 142, 1-(3-(benzofuran-5-yl)-6-(4,4-difluorobutyl)pyrazin-2-yl)piperidine-4-carboxylic acid]
> 2000	CCC(F)(F)Cc1cnc(-c2ccc(OCC3CC3)cc2)c(N2CCC(C(=O)O)CC2)n1 [Compound 150, 1-(3-(4-(cyclopropylmethoxy)phenyl)-6-(2,2-difluorobutyl)pyrazin-2-yl)piperidine-4-carboxylic acid]
